{"source": "patent US12594346B2", "about": "“Crosslinked hydrogel for immune checkpoint blockade delivery” (GEORGIA TECH RESEARCH CORPORATION, priority 2020, dated 2026)", "experiment": "Biotin-4-fluorescein (B4F) competition assay, binding affinity of chimeric proteins", "details": "room temperature", "data": [{"substance": "commercial streptavidin: streptavidin (MP Biomedicals) [reference compound]", "values": [{"measurement": "binding behavior to biotin-4-fluorescein (fluorescence intensity, binding curve fits)", "value": "equivalent binding behavior"}]}]}
